# Test results taken from patent US20240327786A1, “NON-MAMMALIAN AQUATIC ANIMAL CELLS AND EXTRACTS” (Shah Caviar Limited, priority 2021, published 2024).
# System: sturgeon suspension cells
# Experiment: Proliferation of sturgeon suspension cells treated with epigenetic modifiers (cell counts, Neubauer chamber)
# Conditions: exposed once per week
SMILES,proliferation compared to the standard culture,"expansion factor (within 4 weeks, 1 μM, 10 μM, 50 μM, 100 μM and 500 μM)","expansion factor (within 6 weeks, 30 μM, 100 μM, 300 μM, 1 mM and 3 mM)"
CCCC(=O)O [butyric acid],increase in proliferation,16,
CCCC(CCC)C(=O)O [valproic acid],increase in proliferation,,8
